Consider seven molecules from patent US20100113430A1, “THIOXANTHENE DERIVATES USEFUL TO TREAT INFECTIOUS DISEASES” (BKG PHARMA APS, priority 2007, published 2010).

Holding throughout (format): cell-based
In experiment [1] the test system is Fluconazole Resistant Candida albicans clinical isolate. Briefly: MIC (80% growth inhibition), broth microdilution NCCLS M27-A, fluconazole resistant Candida albicans. The conditions noted are these: Candida albicans. The method, then: The antimicrobial effect of N-dealkyl-trans-clopenthixol and N-dealkyl-trans-flupenthixol was studied by exposing cells to 0-8 μg/ml of the compounds in two-fold dilutions. Each experiment was repeated in triple duplicate. MIC values represent the mean values of two separate experiments.
Clinical Isolate of A Fluconazole Resistant Candida albicans from a Patient with Candidemia.
The isolates were subcultured for 24 h on Sabouraud glucose agar before susceptibility testing. Broth microdilution tests were performed according to NCCLS document M27-A (Ref: National Commitee for Clinical Laboratory Standards. (1997). Reference Method for Broth Dilution Antifungal Susceptibility Testing of Yeasts: Approved Standard M27-A. NCCLS, Wayne, Pa.)
Microtitre plates were read spectrophotometrically at 530 nm, after mixing the wells by pipetting to resuspend yeast sediments. The MIC was defined as the lowest drug dilution resulting in 80% growth inhibition.
(In general: Broth dilution looks for growth in wells or tubes with falling amounts of substance.)

The subject of experiment [2] is Enterococcus faecium resistant clinical isolates. The experiment is described as follows: MIC/IC90, resistant clinical isolates of Enterococcus faecium. The method, then: (§1) Cell growth was tested using the Minimal Inhibitory Concentration (MIC) susceptibility tests by use of the microdilution broth method in accordance to the NCCLS Guidelines (NCCLS Guidelines, Methods for Dilution Antimicrobial Susceptibility Tests for Bacteria That Grow Aerobically; Approved Standard, Sixth Edition, Volume 23; Number 2). The minimum inhibitory concentration (MIC), is defined ad the lowest concentration of drug which inhibits growth of the test organism, in the sense that no visible growth is detected (total inhibition of growth). In example 2 MIC of the compounds used on fungal microorganisms was determined from the IC90 measurements according to NCCLS Guidelines.
(§2) A log phase culture of bacteria was diluted with fresh pre-warmed Mueller-Hinton medium and adjusted to a defined OD at 600 nm in order to give a final concentration of 1×10^4-5 bacteria/ml medium. The bacterial culture was transferred to microtiter-plates and culture was added to each well. Drug was added to the bacterial culture in the wells as two-fold dilution series of drug in order to give final concentrations ranging from 0.03 to 128 μg/ml. Trays were incubated at 37° C. by shaking in a robot analyzer, PowerWavex, software KC^4′ Kebo.Lab, Copenhagen, for 16 h and optical densities were measured at 600 nm during the incubation time in order to record growth curves. Wells containing bacterial culture without drug were used as controls to ensure correct inoculum size and bacterial growth during the incubation. Cultures were tested in order to detect contaminations. Each experiment was repeated in triplicate. MIC values represent the mean values of two separate triplicate experiments. Intra- and interassay variation was <5%.
Inhibition 90 (IC90) is defined as: OD responding a 90% growth inhibition. […]
(§3) Clinically relevant isolates were cultured and assayed as described above.

The test system of experiment [3] is Staphylococci, Micrococci. Including MRSA. The experiment is described as follows: MIC/IC90 broad spectrum, Staphylococci and Micrococci. The conditions noted are these: 30 strains, 20 resistant (20 MRSA). The method, then:
as §1, §2
(§4) Inhibition 90 (IC90) is defined as: OD responding a 90% growth inhibition.
(§5) A broad spectrum of bacteria were cultured and assayed as described above for susceptibility towards N-dealkyl-clopenthixol.

Experiment [4] concerns Gram negative sp. Briefly: MIC/IC90 broad spectrum, Gram negative sp. The conditions noted are these: 25 strains, 20 resistant. The procedure:
as §1, §2, §4, §5

Experiment [5] relates to Candida glabrata Multiresistant isolate. Briefly: MIC of cis- and trans-forms, Candida glabrata multiresistant isolate. The conditions noted are these: Example 4. The method, then:
as §1
Cultured microorganisms were assayed as described above. Cis- and trans-isomers of N-dealkyl-clopenthixol was added to the cultures.

Experiment [6] has as its system multiresistant clinical isolate of Staphylococcus epidermidis. The experiment is described as follows: MIC, microdilution broth method (NCCLS), Staphylococcus epidermidis. The procedure: as §1
as §2, with “Drug was added to the bacterial culture in the wells as two-fold dilution series of drug in order to give final concentrations ranging from 0.03 to 128 μg/ml.” left out, “triplicate.” for “triplicate. MIC values represent the mean values of two separate triplicate experiments. Intra- and interassay variation was <5%.”
A clinically relevant isolate of Staphylococcus epidermidis was cultured and assayed as described above for susceptibility towards the compounds listed in table 1.

For experiment [7], the system named is Enterococcus faecalis resistant clinical isolates. The experiment is described as follows: MIC/IC90, resistant clinical isolates of Enterococcus faecalis. The procedure:
as §1, §2, §4, §3

Experiment [8] concerns Streptococci. Briefly: MIC/IC90 broad spectrum, Streptococci. The conditions noted are these: 30 strains, 20 resistant. The method, then:
as §1, §2, §4, §5

For experiment [9], the system named is clinically relevant resistant bacterial isolate S. Aureus. Briefly: Growth inhibition by cis/trans combinations, resistant isolate S. Aureus. The conditions noted are these: Cis-compound 16 μg/ml, Trans-compound 0 μg/ml. The method, then:
as §1
as §2, with “Wells containing bacterial culture without drug were used as controls to ensure correct inoculum size and bacterial growth during the incubation. Cultures were tested in order to detect contaminations. Each experiment was repeated in triplicate. MIC values represent the mean values of two separate triplicate experiments. Intra- and interassay variation was <5%.” left out

For experiment [10], the system named is Candida albicans clinical isolate. The experiment is described as follows: MIC (90% growth inhibition), broth microdilution NCCLS M27-A, Candida albicans. The conditions noted are these: strain 1. Candida albicans FR (fluconazole resistant). The procedure: as §1
The antibacterial effect of demethylated/dealkylated phenothiazine or thioxanthene compounds were studied by growth inhibition studies exposing cells to 0-32 μg/ml of drug. Each experiment was repeated in triplicate. MIC values represent the mean values of two separate triplicate experiments.
(§6) 4 clinical isolates of Candida sp. (including 3 fluconazole resistant isolates) were subcultured for 24 h on Sabouraud glucose agar before susceptibility testing. Broth microdilution tests were performed according to NCCLS document M27-A (Ref: National Committee for Clinical Laboratory Standards. (1997). Reference Method for Broth Dilution Antifungal Susceptibility Testing of Yeasts: Approved Standard M27-A. NCCLS, Wayne, Pa.). Microtitre plates were read spectrophotometrically at 530 nm, after mixing the wells by pipetting to resuspend yeast sediments. In this experiment, the MIC was defined as the lowest drug dilution resulting in 90% growth inhibition.

Experiment [11] deals with Candida glabrata clinical isolates. The experiment is described as follows: MIC (90% growth inhibition), broth microdilution NCCLS M27-A, Candida glabrata. The method, then: as §1, with “Guidelines. […]” for “Guidelines.”
as §6

Where [12] appears, read: multiresistant clinical isolate of Staphylococcus epidermidis, Example 1.
Setting [13] is: strain 2. Candida glabrata FR (fluconazole resistant).
[14] abbreviates: strain 4. Candida glabrata FR (fluconazole resistant).

≈ marks a conversion by molar mass, not a printed value.

Usually MIC stands for the lowest concentration found to suppress growth. Regarding `OC(Cn1cncn1)(Cn1cncn1)c1ccc(F)cc1F` [Fluconazole, reference compound], the MIC in experiment [1] was 128 µg/mL (≈ 418 µM).
Consider `Clc1ccc2c(c1)/C(=C\CCN1CCNCC1)c1ccccc1S2` [N-dealkyl-cis-clopenthixol, cis-1-(3-(2-chlorothioxanthen-9-ylidene)propyl)piperazine], for which the MIC is more than 8 µg/mL in experiment [2] (Enterococcus faecium 11, VanA); more than 8 µg/mL in [2] (Enterococcus faecium 12, VanA); more than 8 µg/mL in experiment [2] (Enterococcus faecium 13, VanB); more than 8 µg/mL in [2] (Enterococcus faecium 14, HLAR); more than 8 µg/mL in [2] (Enterococcus faecium 15, HLAR); more than 8 µg/mL in experiment [2] (Enterococcus faecium 16, BLR, CR). Moreover, the minimum inhibitory concentration (MIC) in experiment [2] (Enterococcus faecium 17, VanB) was more than 8 µg/mL; in experiment [2] (Enterococcus faecium 18, VanB) it was more than 8 µg/mL; in [2] (Enterococcus faecium 19, VanB) it was more than 8 µg/mL; in experiment [2] (Enterococcus faecium multiresistant isolate, Example 4), 16 µg/mL (≈ 44.8 µM); in experiment [5], more than 16 µg/mL; in experiment [6] (Staphylococcus epidermidis multiresistant isolate, Example 6, isomers alone and 1:1 mixture), more than 8 µg/mL. For the same molecule, the minimum inhibitory concentration (MIC) in [6] (setting [12]) is 16 µg/mL (≈ 44.8 µM); in [7] (Enterococcus faecalis 1, VanA), more than 8 µg/mL; in [7] (Enterococcus faecalis 2, VanA) it was more than 8 µg/mL; in experiment [7] (Enterococcus faecalis 3, VanA), more than 8 µg/mL; in experiment [7] (Enterococcus faecalis 4, VanB) it was more than 8 µg/mL; in [7] (Enterococcus faecalis 5, Van B), more than 8 µg/mL. Moreover, the minimal inhibitory concentration (MIC) in experiment [7] (Enterococcus faecalis 6, VanB) is more than 8 µg/mL; in experiment [7] (Enterococcus faecalis 7, VanA), more than 8 µg/mL; in [7] (Enterococcus faecalis 8, HLAR), more than 8 µg/mL; in experiment [7] (Enterococcus faecalis 9, HLAR) it was more than 8 µg/mL; in experiment [7] (Enterococcus faecalis 10, BLR, CR) it was more than 8 µg/mL. Moreover, the figures for the “MIC (mean)” value in experiment [3], in experiment [4] and in [8] were 16 µg/mL (≈ 44.8 µM), more than 16 µg/mL and 16 µg/mL (≈ 44.8 µM), respectively. Also, the Growth inhibition in experiment [9] was 100%.
On to `Fc1ccc2c(c1)C(=CCCN1CCNCC1)c1ccccc1S2` [N-dealkyl-cis-flupenthixol, cis-1-(3-(2-fluor-thioxanthen-9-ylidene)propyl)piperazine], for which the MIC in experiment [6] (setting [12]) stood at 16 µg/mL (≈ 47 µM).
The same measure, in the same setting: the value for `FC(F)(F)c1ccc2c(c1)N(CCCN1CCNCC1)c1ccccc1S2` [N-deshydroxy-ethyl-Fluphenazine, reference compound] was 16 µg/mL (≈ 40.7 µM).
For `CNCCC=C1c2ccccc2Sc2ccc(Cl)cc21` [N-desmethyl-Chlorprothixen, reference compound], the MIC in [10], in [6] (setting [12]), in experiment [11] (setting [13]), in [11] (setting [14]) and in experiment [11] (strain 5. Candida glabrata) was 16 µg/mL (≈ 53 µM) in each case.
Take `CNCCCN1c2ccccc2Sc2ccc(Cl)cc21` [N-desmethyl-chlorpromazine, reference compound]: the MIC in [6] (setting [12]) was 16 µg/mL (≈ 52.5 µM).
“Desmethyl-perphenazin [reference compound]”: the MIC in experiment [10], in experiment [6] (setting [12]), in experiment [11] (setting [13]), in [11] (setting [14]) and in [11] (strain 5. Candida glabrata) was 16 µg/mL throughout.
